# Test results: patent publication US9055743B2, “Alpha, beta-unsaturated imines” (BAYER INTELLECTUAL PROPERTY GMBH, priority 2010, dated 2015)
# What was measured:
# Type in all cases: in vivo
# [1] = tested on: Aedes aegypti; assay: Aedes test (AEDSAE surface treatment); settings: for knock-down activity: 100 mg/m^2, two hours after contact, exposition 30 minutes; for mortality at 100 mg/m2: Aedes aegypti, read-out: activity (mortality in %); for Kill rate in % after 24 h: active compound concentration 1.6 g/ha
# Outline: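 Adults were held 30 minutes on glazed tiles carrying a dried acetone deposit of compound (2 mg/ml solution). Readouts: percent knock-down 2 h after contact, percent mortality 24 h after contact, where 0% means no mosquitoes killed.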
# [2] = tested on: Boophilus microplus; assay: Boophilus microplus test (BOOPMI injection); settings: for activity (100% = none of the ticks has laid any fertile eggs): 20 μg/animal, injection into the abdomen, after 7 days
# Outline: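 Ticks injected in the abdomen with compound in DMSO, then held in a climatized room. Effect scored after 7 days as % reduction in fertile egg laying, 100% meaning no fertile eggs.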
# [3] = tested on: Anopheles gambiae (homocygus kdr); assay: Anopheles test (ANPHGB surface treatment); settings: for knock-down activity: 100 mg/m^2, two hours after contact, exposition 30 minutes; for mortality at 100 mg/m2: Anopheles gambiae, read-out: activity (mortality in %); for Kill rate in % after 24 hours: active compound concentration 1.6 g/ha
# Outline: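 Adult mosquitoes held 30 min on a glazed tile treated with a dried 2 mg/ml acetone solution of compound. Mortality scored at 24 h (100% = all killed), knock-down percentage at 2 h post-contact.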
# [4] = tested on: cat fleas (Ctenocephalides felis, fully sensitive laboratory strain); assay: Contact test against fleas in-vitro (CTECFE contact); settings: for activity against cat fleas: 500 g/ha, after 48 h
# Outline: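 Test tubes coated from acetone solutions by rotation, top concentration 500 g/ha (500 μg/dm^2) on tube surface, serial 1:5 dilutions. 10-20 CO2-anesthetized adult fleas held at room temperature for 24 and 48 h. Activity scored versus acetone control: knock-down or death of all fleas = 100%.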
# [5] = tested on: Musca domestica; assay: Musca domestica test (MUSCDO); settings: 100 ppm, after 2 days
# Protocol: Musca domestica Test (MUSCDO)
# Solvent: Dimethyl Sulphoxide
# To produce a suitable preparation of active compound, 10 mg of active compound are mixed with 0.5 ml of dimethyl sulphoxide and the concentrate is diluted with water to the desired concentration. Vessels containing a sponge treated with the active compound preparation of the desired concentration are populated with adult Musca domestica.
# After 2 days, the kill in % is determined 100% means that all flies have been killed; 0% means that none of the flies have been killed.
# [6] = tested on: Ctenocephalides felis; assay: Ctenocephalides felis oral test (CTECFE); settings: 100 ppm in citrated cattle blood, after two days
# Outline: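 About 20 unfed adult C. felis fed through a parafilm membrane on citrated cattle blood containing compound (DMSO stock diluted to the desired concentration). Kill (%) determined after two days; 100% = all fleas dead, 0% = none dead.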
# [7] = tested on: Culex quinquefasciatus; assay: whole plant or invertebrate; settings: for knock-down activity: 100 mg/m^2, two hours after contact, exposition 30 minutes; for mortality at 100 mg/m2: Culex quinquefasciatus, read-out: activity (mortality in %)
# Protocol: Culex Test (CULXFA Surface Treatment) Solvent: Acetone
# To produce a suitable preparation of active compound, the active compound is dissolved in acetone (2 mg/ml). The active compound preparation is pipetted onto a glazed tile and, after drying, adult mosquitoes of the species Culex quinquefasciatus are placed onto the treated tile. The exposition time is 30 minutes.
# Two hours after contact to the treated surface, the knock-down proportion of the test animals in % is determined.
# 24 hours after contact to the treated surface, the mortality in % is determined. Here, 100% means that all mosquitoes have been killed; 0% means that none of the mosquitoes has been killed.
# [8] = tested on: caterpillars of the army worm (Spodoptera frugiperda); assay: Spodoptera frugiperda test (SPODFR spray treatment); settings: 500 g/ha, spray, after 7 days; for pest or weed control at 500 g/ha: Spodoptera frugiperda, 168 h, read-out: activity (caterpillars killed)
# Outline: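 Activity in % read 7 days after armyworm caterpillars were placed on dried, sprayed Zea mays leaf discs; 0% means none killed. Spray prepared from an acetone/DMF concentrate with emulsifier, diluted with emulsifier-containing water.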
# [9] = tested on: green peach aphid (Myzus persicae); assay: Myzus test (MYZUPE spray treatment); settings: 500 g/ha, spray, after 6 days; for pest or weed control at 500 g/ha: Myzus persicae, 144 h, read-out: activity (aphids killed)
# Outline: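 Activity read as % aphid kill 6 days after treatment (0% = none killed). Compound formulated in acetone and dimethylformamide plus alkylaryl polyglycol ether, diluted in water and sprayed onto infested Brassica pekinensis leaf discs.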
Structure (SMILES),knock-down activity [1] [%],activity (100% = none of the ticks has laid any fertile eggs) [2] [%],knock-down activity [3] [%],activity against cat fleas [4] [%],activity (kill in %) [5] [%],activity (kill in %) [6] [%],knock-down activity [7] [%],activity (caterpillars killed) [8] [%],activity (aphids killed) [9] [%],mortality at 100 mg/m2 [1] [%],Kill rate in % after 24 h [1] [%],mortality at 100 mg/m2 [3] [%],Kill rate in % after 24 hours [3] [%],mortality at 100 mg/m2 [7] [%],pest or weed control at 500 g/ha [8] [%],pest or weed control at 500 g/ha [9] [%],Kill rate in % after 7 days ([2]; active compound concentration 0.16 μg/animal) [%],Kill rate in % after 2 days ([4]; active compound concentration 0.032 g/ha) [%]
Cc1ccc(N=C2C(=CSc3ccc(C)cc3)CCc3ccccc32)cc1 [Example 1-28],80,100,100,100,80,100,95,100,90,–,–,–,–,–,–,–,–,–
Cc1ccc(N=C2C(=CSc3ccc(F)cc3)CSc3ccccc32)cc1 [Example 1-35],90,100,100,100,–,100,–,–,–,100,100,100,100,100,100,100,–,–
Cc1ccc(N=C2C(=CSc3ccc(F)cc3)CCc3cc(F)ccc32)cc1 [Example 1-16],100,100,100,100,80,100,95,–,–,100,90,100,80,100,100,100,90,–
Cc1ccc(N=C2C(=CSc3ccc(F)cc3)CCc3ccccc32)cc1 [Example 1-9],100,100,100,100,90,100,100,–,–,100,75,100,100,100,100,100,–,100
Cc1ccc(N=C2C(=CSc3ccc(F)cc3)C(C)c3ccccc32)cc1 (stereo not drawn) [Example 1-57],100,100,80,100,85,100,–,–,–,100,–,100,100,100,100,100,–,–
